This is an account of results in PMC8398766, “Do Small Molecules Activate the TrkB Receptor in the Same Manner as BDNF? Limitations of Published TrkB Low Molecular Agonists and Screening for Novel TrkB Orthosteric Agonists” (Pharmaceuticals, 2021).

Entries after “also recorded” stand apart in the source; their conditions may differ.

The target in one data set is T1, A1 (Homo sapiens, UniProt P30542).
T1 construct: purchased Eurofins Discovery (Cerep) BioPrint Profile Panel
In words: BioPrint Profile Panel. The conditions noted are these: Agonist, Receptor, read-out: % Inhibition of Control Specific Binding. An excerpt: (§1) The BioPrint® Profile Panel service offered by Eurofins Discovery (Poitiers, France) was chosen to perform selectivity analysis.

Another data set is described as follows: in vitro. As to conditions: mouse, microsomes.
In another data set the target is T2, TrkB receptor (Rattus norvegicus, UniProt Q63604).
T2 construct: host or cells: SN56 T48 cell line
Put plainly: ELFI TrkB phosphorylation, orthosteric agonist mode, SN56 T48 cell line. The class given is cell-based. The conditions noted are these: 0.125–100 μM, 15 min. Here is the method: The SN56 T48 cell line with stable overexpression of the TrkB receptor was purchased from Emory University (Atlanta, GA, USA) and cultivated according to the protocol described in Jang et al., 2010 [12]. The cell lines were cultivated with the following reagents: DMEM High Glucose, fetal bovine serum (FBS), Penicillin-Streptomycin Solution 100×, and Trypsin-EDTA 1×; all were purchased from Biowest, and G418 was from ThermoFisher Scientific. For the ELFI experiments, cells were seeded (8000/well) on a PDL-treated 96-well plate (BioCoat™, Corning Inc., Corning, NY, USA) and 6-well plate (400,000/well) for lysate collection and immunoblot analysis.
In the orthosteric agonist mode experiments, starved cells (5 h) were treated with compounds (0.125–100 μM; volume, 100 μL/well) or BDNF (0.01–10 nM; volume, 100 μL/well) dissolved in culture medium. In the allosteric modulation mode experiments, starved cells (5 h) were treated with final compound concentrations of 3, 10, and 30 μM; volume, 50 μL/well) in the presence of a rising concentration of BDNF (final concentration in well, 0.15–5 nM; volume, 50 μL/well). Corresponding treatment with DMSO (v/v) was performed for a control. Cells were treated for 15 min in both the orthosteric and allosteric modulation mode experiments.
The analysis of TrkB receptor activation was performed using the ELFI method adapted from Boltayev et al. (2017) with some modifications. After compound treatment, experiments were stopped by fixing cells with 10% buffered formalin (Kolchem, Lodz, Poland) for 20 min (volume, 100 μL/well). Afterwards, cells were permeabilized with washing buffer (TBS+ 0.1% Tween20) for 15 min, and endogenous peroxidases were quenched by 20 min of incubation with 1% H2O2 dissolved in TBS (each solution: volume, 100 μL/well). Epitopes were blocked with 10% BSA (Biowest) dissolved in washing buffer for 2 h (volume, 100 μL/well) and incubated with anti-pTrkB (Tyr707) primary antibody (Cell Signaling Technology, Danvers, MA, USA) diluted in washing buffer (1:500; overnight at 4 °C; volume, 100 μL/well). After repeated washing, cells were incubated with HRP-linked anti-rabbit antibody (Cell Signaling Technology) for 2 h (1:1000; RT; volume, 100 μL/well) and washed. The cells were then incubated with 100 μL of ImmunoCruz™ Western Blotting Luminol (Santa Cruz Biotechnology, Dallas, TX, USA) for 1 min in the dark, and the signals were measured using a microplate luminometer (VICTOR Light 1420-060, PerkinElmer®, Waltham, MA, USA). For non-specific binding, cells were treated, with the exception of primary antibody.

A further data set relates to Guanylyl cyclase. Put plainly: BioPrint Profile Panel. The class given is biochemical. The conditions noted are these: 10 μM; Activator effect.
Text: as §1

Another data set deals with T3, ZAP70 kinase (Homo sapiens, UniProt P43403).
T3 construct: purchased Eurofins Discovery (Cerep) BioPrint Profile Panel
Put plainly: BioPrint Profile Panel. In kind it is biochemical. As to conditions: read-out: % of specific inhibition.
Text: as §1

A further data set deals with T4, MMP-9 (Homo sapiens, UniProt P14780).
T4 construct: purchased Eurofins Discovery (Cerep) BioPrint Profile Panel
In words: BioPrint Profile Panel. In kind it is biochemical. As to conditions: Non-Kinase Enzyme, read-out: % Inhibition of Control Specific Binding.
Text: as §1

A further data set deals with T5, caspase-3 (Homo sapiens, UniProt P42574).
T5 construct: purchased Eurofins Discovery (Cerep) BioPrint Profile Panel
In words: BioPrint Profile Panel. The class given is biochemical. The conditions noted are these: Non-Kinase Enzyme, read-out: % of specific inhibition.
Text: as §1

In a further data set the test system is inducible NOS. Put plainly: BioPrint Profile Panel. As to conditions: 10 μM; Non-Kinase Enzyme. The class given is biochemical.
Text: as §1

The subject of another data set is ATPase (Na+/K+). In words: BioPrint Profile Panel. The conditions noted are these: 10 μM; Non-Kinase Enzyme. The class given is biochemical.
Text: as §1

In another data set the test system is HIV-1 protease. Put plainly: BioPrint Profile Panel. In kind it is biochemical. The conditions noted are these: 10 μM; Non-Kinase Enzyme.
Text: as §1

For another data set, the target named is T6, PDE3B (Homo sapiens, UniProt Q13370).
T6 construct: purchased Eurofins Discovery (Cerep) BioPrint Profile Panel
Put plainly: BioPrint Profile Panel. In kind it is biochemical. As to conditions: Non-Kinase Enzyme, read-out: % of specific inhibition.
Text: as §1

T2 sequence (Q63604 32-821): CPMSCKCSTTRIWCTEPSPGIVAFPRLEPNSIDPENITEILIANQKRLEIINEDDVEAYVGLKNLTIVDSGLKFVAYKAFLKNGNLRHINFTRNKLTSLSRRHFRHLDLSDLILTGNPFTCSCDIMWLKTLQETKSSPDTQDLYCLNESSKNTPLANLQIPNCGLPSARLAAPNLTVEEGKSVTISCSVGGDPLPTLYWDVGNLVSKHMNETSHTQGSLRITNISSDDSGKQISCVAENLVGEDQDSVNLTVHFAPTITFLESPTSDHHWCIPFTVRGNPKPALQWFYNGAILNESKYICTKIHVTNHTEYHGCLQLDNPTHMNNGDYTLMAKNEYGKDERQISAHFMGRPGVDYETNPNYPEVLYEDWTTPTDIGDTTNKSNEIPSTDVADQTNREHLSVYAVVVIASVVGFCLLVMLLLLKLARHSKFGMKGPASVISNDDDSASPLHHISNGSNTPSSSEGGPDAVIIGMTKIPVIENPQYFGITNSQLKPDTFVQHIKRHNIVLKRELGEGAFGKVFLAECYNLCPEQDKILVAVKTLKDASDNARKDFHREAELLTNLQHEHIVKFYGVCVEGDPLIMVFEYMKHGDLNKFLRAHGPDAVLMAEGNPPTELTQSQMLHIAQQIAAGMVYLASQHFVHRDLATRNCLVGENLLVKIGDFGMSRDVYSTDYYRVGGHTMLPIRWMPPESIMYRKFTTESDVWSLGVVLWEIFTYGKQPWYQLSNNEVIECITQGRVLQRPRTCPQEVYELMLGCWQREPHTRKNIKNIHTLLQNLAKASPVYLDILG
T6 sequence (Q13370 whole entry): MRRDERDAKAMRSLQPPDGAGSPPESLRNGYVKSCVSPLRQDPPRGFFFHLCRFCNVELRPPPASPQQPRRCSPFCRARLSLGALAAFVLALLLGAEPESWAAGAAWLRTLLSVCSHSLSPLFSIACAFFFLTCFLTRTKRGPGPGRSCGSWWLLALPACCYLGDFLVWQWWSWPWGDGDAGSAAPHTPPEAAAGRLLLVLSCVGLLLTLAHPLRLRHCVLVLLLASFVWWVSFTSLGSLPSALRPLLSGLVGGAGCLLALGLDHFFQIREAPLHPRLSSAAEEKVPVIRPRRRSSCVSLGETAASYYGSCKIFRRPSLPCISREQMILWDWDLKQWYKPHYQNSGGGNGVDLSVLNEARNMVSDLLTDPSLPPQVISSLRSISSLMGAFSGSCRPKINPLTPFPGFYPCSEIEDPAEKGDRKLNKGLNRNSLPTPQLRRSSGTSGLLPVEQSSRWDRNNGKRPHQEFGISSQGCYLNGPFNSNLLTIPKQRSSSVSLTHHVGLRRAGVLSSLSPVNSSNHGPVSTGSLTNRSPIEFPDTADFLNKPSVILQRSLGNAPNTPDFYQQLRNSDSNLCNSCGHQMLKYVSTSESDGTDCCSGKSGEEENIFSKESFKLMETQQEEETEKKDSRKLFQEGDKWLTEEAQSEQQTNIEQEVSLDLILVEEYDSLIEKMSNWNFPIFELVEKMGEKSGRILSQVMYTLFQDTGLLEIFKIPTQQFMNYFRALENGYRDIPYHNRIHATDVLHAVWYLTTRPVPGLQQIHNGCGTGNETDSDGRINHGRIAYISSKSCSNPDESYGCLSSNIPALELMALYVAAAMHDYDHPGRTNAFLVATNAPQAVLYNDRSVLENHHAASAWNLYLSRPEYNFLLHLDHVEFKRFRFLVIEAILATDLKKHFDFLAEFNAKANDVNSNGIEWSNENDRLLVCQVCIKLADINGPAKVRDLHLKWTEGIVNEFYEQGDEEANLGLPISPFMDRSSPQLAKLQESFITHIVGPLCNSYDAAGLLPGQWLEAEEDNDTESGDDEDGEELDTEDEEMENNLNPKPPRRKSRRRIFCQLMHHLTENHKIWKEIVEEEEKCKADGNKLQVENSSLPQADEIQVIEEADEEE
T4 sequence (P14780 94-707): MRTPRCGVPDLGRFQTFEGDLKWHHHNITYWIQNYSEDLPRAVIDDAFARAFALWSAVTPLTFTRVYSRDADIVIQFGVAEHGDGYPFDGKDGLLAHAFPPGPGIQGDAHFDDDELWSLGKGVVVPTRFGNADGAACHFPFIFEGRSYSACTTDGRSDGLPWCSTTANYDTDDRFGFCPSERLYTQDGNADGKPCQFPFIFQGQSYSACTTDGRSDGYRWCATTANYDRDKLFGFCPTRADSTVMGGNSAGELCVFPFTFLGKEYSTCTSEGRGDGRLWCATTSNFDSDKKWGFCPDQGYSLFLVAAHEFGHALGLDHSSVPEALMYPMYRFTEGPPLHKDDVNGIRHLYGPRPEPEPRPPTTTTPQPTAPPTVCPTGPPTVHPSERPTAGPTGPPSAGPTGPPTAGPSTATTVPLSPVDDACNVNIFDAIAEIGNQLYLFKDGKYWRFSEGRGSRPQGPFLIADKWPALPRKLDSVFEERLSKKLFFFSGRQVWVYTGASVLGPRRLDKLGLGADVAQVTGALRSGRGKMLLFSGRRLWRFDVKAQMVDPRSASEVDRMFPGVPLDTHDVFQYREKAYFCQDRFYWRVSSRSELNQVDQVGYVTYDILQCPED
T3 sequence (P43403 whole entry): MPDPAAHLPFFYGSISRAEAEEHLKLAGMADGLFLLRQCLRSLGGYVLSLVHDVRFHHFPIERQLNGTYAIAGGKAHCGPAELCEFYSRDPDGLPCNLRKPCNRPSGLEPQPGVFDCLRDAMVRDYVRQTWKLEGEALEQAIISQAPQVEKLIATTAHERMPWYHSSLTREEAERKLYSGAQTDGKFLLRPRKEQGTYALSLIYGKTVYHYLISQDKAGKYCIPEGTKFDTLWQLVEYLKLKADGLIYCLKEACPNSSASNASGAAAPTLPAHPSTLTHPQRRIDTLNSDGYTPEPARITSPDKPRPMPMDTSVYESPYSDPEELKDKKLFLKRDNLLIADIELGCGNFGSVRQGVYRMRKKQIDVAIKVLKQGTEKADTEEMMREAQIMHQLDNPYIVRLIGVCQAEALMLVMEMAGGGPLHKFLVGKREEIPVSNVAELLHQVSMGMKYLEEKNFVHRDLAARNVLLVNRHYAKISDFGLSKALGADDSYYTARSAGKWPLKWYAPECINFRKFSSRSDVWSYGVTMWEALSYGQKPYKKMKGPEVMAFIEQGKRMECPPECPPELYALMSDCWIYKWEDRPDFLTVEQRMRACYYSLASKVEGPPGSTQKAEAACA
T5 sequence (P42574 29-175 limits assumed): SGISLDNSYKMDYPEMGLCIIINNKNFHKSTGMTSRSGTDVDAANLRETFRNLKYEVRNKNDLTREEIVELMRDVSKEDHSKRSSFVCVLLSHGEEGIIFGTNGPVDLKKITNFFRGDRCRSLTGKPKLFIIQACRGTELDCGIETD
T5 sequence (P42574 176-277 limits assumed): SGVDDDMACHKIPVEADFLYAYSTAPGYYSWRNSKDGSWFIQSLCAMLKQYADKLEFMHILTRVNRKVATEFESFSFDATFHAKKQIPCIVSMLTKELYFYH
T1 sequence (P30542 whole entry): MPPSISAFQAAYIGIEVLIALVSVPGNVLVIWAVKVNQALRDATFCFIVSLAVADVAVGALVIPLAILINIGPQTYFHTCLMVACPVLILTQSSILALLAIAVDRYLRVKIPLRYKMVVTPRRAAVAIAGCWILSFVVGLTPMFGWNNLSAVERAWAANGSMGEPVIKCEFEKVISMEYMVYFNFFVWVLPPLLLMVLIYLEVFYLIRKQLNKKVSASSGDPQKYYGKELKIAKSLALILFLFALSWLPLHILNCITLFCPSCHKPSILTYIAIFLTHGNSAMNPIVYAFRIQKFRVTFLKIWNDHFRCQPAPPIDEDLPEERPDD

With `O=c1cc(-c2ccccc2)oc2c(O)c(O)ccc12` [7,8-DHF, 7,8-dihydroxyflavone], the inhibition at 10 µM at A1 is 99%; at ZAP70 kinase, 4%; on MMP-9, 72%; at caspase-3, 1%; at PDE3B it was 11%. The molecule further had a microsomal CLint at 1 μM in “in vitro” of 21.3 µL/min/mg. The “Orthosteric activity (induction of TrkB phosphorylation)” value at TrkB receptor is reported as “failed to show any activity; also recorded: does not occur”. In addition, the “% of specific inhibition” value with Guanylyl cyclase is given as 2%; in the data set with inducible NOS, 3%; in the data set on ATPase (Na+/K+) it was -2%; in the data set with HIV-1 protease it was 1%.
